{"source": "ChEMBL document CHEMBL3763069", "about": "“Synthesis of fluorinated carbazoles via C-H arylation catalyzed by Pd/Cu bimetal system and their antibacterial activities” (2016)", "format_in_all_cases": "functional", "key": {"Staphylococcus aureus [1]": {"test_system": "Staphylococcus aureus", "experiment": "Antibacterial activity against Staphylococcus aureus incubated for 20 hrs by microbroth dilution method"}, "Bacillus subtilis": {"test_system": "Bacillus subtilis", "experiment": "Antibacterial activity against Bacillus subtilis incubated for 20 hrs by microbroth dilution method"}, "Staphylococcus aureus [2]": {"test_system": "Staphylococcus aureus", "experiment": "Antibacterial activity against methicillin-resistant Staphylococcus aureus incubated for 20 hrs by microbroth dilution method"}, "Escherichia coli": {"test_system": "Escherichia coli", "experiment": "Antibacterial activity against Escherichia coli incubated for 20 hrs by microbroth dilution method"}}}
{"smiles": "Cc1ccc2[nH]c3cc(F)cc(F)c3c2c1", "values": [{"measurement": "MIC", "setting": "Staphylococcus aureus [1]", "value": 100, "unit": "µg/mL"}, {"measurement": "MIC", "setting": "Bacillus subtilis", "value": 3.12, "unit": "µg/mL"}, {"measurement": "MIC", "setting": "Staphylococcus aureus [2]", "value": 3.12, "unit": "µg/mL"}]}
{"smiles": "Cc1ccc2[nH]c3c(C)ccc(F)c3c2c1", "values": [{"measurement": "MIC", "setting": "Staphylococcus aureus [1]", "value": 6.25, "unit": "µg/mL"}, {"measurement": "MIC", "setting": "Bacillus subtilis", "value": 6.25, "unit": "µg/mL"}, {"measurement": "MIC", "setting": "Staphylococcus aureus [2]", "value": 6.25, "unit": "µg/mL"}]}
{"smiles": "CCc1ccc2[nH]c3c(C)ccc(F)c3c2c1", "values": [{"measurement": "MIC", "setting": "Staphylococcus aureus [1]", "value": 3.12, "unit": "µg/mL"}, {"measurement": "MIC", "setting": "Bacillus subtilis", "value": 3.12, "unit": "µg/mL"}, {"measurement": "MIC", "setting": "Staphylococcus aureus [2]", "value": 3.12, "unit": "µg/mL"}]}
{"smiles": "Fc1ccc2c(c1)[nH]c1cc(F)cc(F)c12", "values": [{"measurement": "MIC", "setting": "Staphylococcus aureus [1]", "value": 1.56, "unit": "µg/mL"}, {"measurement": "MIC", "setting": "Escherichia coli", "value": 25, "unit": "µg/mL"}, {"measurement": "MIC", "setting": "Bacillus subtilis", "value": 3.12, "unit": "µg/mL"}, {"measurement": "MIC", "setting": "Staphylococcus aureus [2]", "value": 12.5, "unit": "µg/mL"}]}
{"smiles": "Fc1cc(F)c2[nH]c3ccccc3c2c1F", "values": [{"measurement": "MIC", "setting": "Staphylococcus aureus [1]", "value": 6.25, "unit": "µg/mL"}, {"measurement": "MIC", "setting": "Bacillus subtilis", "value": 6.25, "unit": "µg/mL"}, {"measurement": "MIC", "setting": "Staphylococcus aureus [2]", "value": 12.5, "unit": "µg/mL"}]}
{"smiles": "Fc1cc(F)c2c(c1)[nH]c1ccc(F)cc12", "values": [{"measurement": "MIC", "setting": "Staphylococcus aureus [1]", "value": 1.56, "unit": "µg/mL"}, {"measurement": "MIC", "setting": "Escherichia coli", "value": 12.5, "unit": "µg/mL"}, {"measurement": "MIC", "setting": "Bacillus subtilis", "value": 3.12, "unit": "µg/mL"}, {"measurement": "MIC", "setting": "Staphylococcus aureus [2]", "value": 3.12, "unit": "µg/mL"}]}
{"smiles": "Fc1ccc2c(c1)[nH]c1c(F)cc(F)c(F)c12", "values": [{"measurement": "MIC", "setting": "Staphylococcus aureus [1]", "value": 3.12, "unit": "µg/mL"}, {"measurement": "MIC", "setting": "Bacillus subtilis", "value": 3.12, "unit": "µg/mL"}, {"measurement": "MIC", "setting": "Staphylococcus aureus [2]", "value": 6.25, "unit": "µg/mL"}]}
{"smiles": "CN[C@@H]1[C@H](O[C@H]2[C@H](O[C@H]3[C@H](O)[C@@H](O)[C@H](N=C(N)N)[C@@H](O)[C@@H]3N=C(N)N)O[C@@H](C)[C@]2(O)C=O)O[C@@H](CO)[C@H](O)[C@H]1O", "note": "[STREPTOMYCIN]", "values": [{"measurement": "MIC", "setting": "Staphylococcus aureus [1]", "value": 3.12, "unit": "µg/mL"}, {"measurement": "MIC", "setting": "Escherichia coli", "value": 3.12, "unit": "µg/mL"}, {"measurement": "MIC", "setting": "Bacillus subtilis", "value": 3.21, "unit": "µg/mL"}, {"measurement": "MIC", "setting": "Staphylococcus aureus [2]", "value": 3.12, "unit": "µg/mL"}]}
{"smiles": "Cc1ccc(F)c2c1[nH]c1cc(F)ccc12", "values": [{"measurement": "MIC", "setting": "Staphylococcus aureus [1]", "value": 50, "unit": "µg/mL"}, {"measurement": "MIC", "setting": "Bacillus subtilis", "value": 6.25, "unit": "µg/mL"}, {"measurement": "MIC", "setting": "Staphylococcus aureus [2]", "value": 6.26, "unit": "µg/mL"}]}
{"smiles": "CCc1ccc2[nH]c3cc(F)cc(F)c3c2c1", "values": [{"measurement": "MIC", "setting": "Staphylococcus aureus [1]", "value": 1.56, "unit": "µg/mL"}, {"measurement": "MIC", "setting": "Bacillus subtilis", "value": 3.12, "unit": "µg/mL"}, {"measurement": "MIC", "setting": "Staphylococcus aureus [2]", "value": 3.12, "unit": "µg/mL"}]}
{"smiles": "CCc1ccc2[nH]c3c(F)cc(F)c(F)c3c2c1", "values": [{"measurement": "MIC", "setting": "Staphylococcus aureus [1]", "value": 3.12, "unit": "µg/mL"}, {"measurement": "MIC", "setting": "Bacillus subtilis", "value": 3.12, "unit": "µg/mL"}, {"measurement": "MIC", "setting": "Staphylococcus aureus [2]", "value": 3.12, "unit": "µg/mL"}]}
{"smiles": "Fc1cc(F)c2c(c1)[nH]c1cc(C(F)(F)F)ccc12", "values": [{"measurement": "MIC", "setting": "Staphylococcus aureus [1]", "value": 0.39, "unit": "µg/mL"}, {"measurement": "MIC", "setting": "Bacillus subtilis", "value": 0.78, "unit": "µg/mL"}, {"measurement": "MIC", "setting": "Staphylococcus aureus [2]", "value": 3.12, "unit": "µg/mL"}]}
{"smiles": "Cc1ccc(F)c2c1[nH]c1cc(C(F)(F)F)ccc12", "values": [{"measurement": "MIC", "setting": "Staphylococcus aureus [1]", "value": 1.56, "unit": "µg/mL"}, {"measurement": "MIC", "setting": "Bacillus subtilis", "value": 3.12, "unit": "µg/mL"}, {"measurement": "MIC", "setting": "Staphylococcus aureus [2]", "value": 3.12, "unit": "µg/mL"}]}
{"smiles": "Cc1ccc2c(c1)[nH]c1cc(F)cc(F)c12", "values": [{"measurement": "MIC", "setting": "Staphylococcus aureus [1]", "value": 3.12, "unit": "µg/mL"}, {"measurement": "MIC", "setting": "Bacillus subtilis", "value": 3.12, "unit": "µg/mL"}, {"measurement": "MIC", "setting": "Staphylococcus aureus [2]", "value": 3.12, "unit": "µg/mL"}]}
{"smiles": "CC1(C)S[C@@H]2[C@H](NC(=O)[C@H](N)c3ccccc3)C(=O)N2[C@H]1C(=O)O", "note": "[AMPICILLIN]", "values": [{"measurement": "MIC", "setting": "Staphylococcus aureus [1]", "value": 0.2, "unit": "µg/mL"}, {"measurement": "MIC", "setting": "Escherichia coli", "value": 3.12, "unit": "µg/mL"}, {"measurement": "MIC", "setting": "Bacillus subtilis", "value": "< 0.2", "unit": "µg/mL"}]}
{"smiles": "Fc1cc(F)c2[nH]c3cc(C(F)(F)F)ccc3c2c1F", "values": [{"measurement": "MIC", "setting": "Staphylococcus aureus [1]", "value": 0.78, "unit": "µg/mL"}, {"measurement": "MIC", "setting": "Bacillus subtilis", "value": 0.78, "unit": "µg/mL"}, {"measurement": "MIC", "setting": "Staphylococcus aureus [2]", "value": 3.12, "unit": "µg/mL"}]}
{"smiles": "Fc1cc(F)c2c(c1)[nH]c1ccccc12", "values": [{"measurement": "MIC", "setting": "Staphylococcus aureus [1]", "value": 25, "unit": "µg/mL"}, {"measurement": "MIC", "setting": "Escherichia coli", "value": 25, "unit": "µg/mL"}, {"measurement": "MIC", "setting": "Bacillus subtilis", "value": 6.25, "unit": "µg/mL"}, {"measurement": "MIC", "setting": "Staphylococcus aureus [2]", "value": 12.5, "unit": "µg/mL"}]}
{"smiles": "C[C@@H](O)[C@H]1C(=O)N2C(C(=O)O)=C(S[C@@H]3CN[C@H](C(=O)N(C)C)C3)[C@H](C)[C@H]12", "note": "[MEROPENEM]", "values": [{"measurement": "MIC", "setting": "Staphylococcus aureus [1]", "value": 0.78, "unit": "µg/mL"}, {"measurement": "MIC", "setting": "Escherichia coli", "value": 0.05, "unit": "µg/mL"}, {"measurement": "MIC", "setting": "Bacillus subtilis", "value": 3.12, "unit": "µg/mL"}, {"measurement": "MIC", "setting": "Staphylococcus aureus [2]", "value": 0.78, "unit": "µg/mL"}]}
{"smiles": "Cc1ccc2c(c1)[nH]c1c(F)cc(F)c(F)c12", "values": [{"measurement": "MIC", "setting": "Staphylococcus aureus [1]", "value": 6.25, "unit": "µg/mL"}, {"measurement": "MIC", "setting": "Bacillus subtilis", "value": 3.12, "unit": "µg/mL"}, {"measurement": "MIC", "setting": "Staphylococcus aureus [2]", "value": 6.25, "unit": "µg/mL"}]}
{"smiles": "Fc1ccc2[nH]c3c(F)cc(F)c(F)c3c2c1", "values": [{"measurement": "MIC", "setting": "Staphylococcus aureus [1]", "value": 1.56, "unit": "µg/mL"}, {"measurement": "MIC", "setting": "Bacillus subtilis", "value": 3.12, "unit": "µg/mL"}, {"measurement": "MIC", "setting": "Staphylococcus aureus [2]", "value": 6.25, "unit": "µg/mL"}]}
{"smiles": "Cc1ccc(F)c2c1[nH]c1ccccc12", "values": [{"measurement": "MIC", "setting": "Staphylococcus aureus [1]", "value": 50, "unit": "µg/mL"}, {"measurement": "MIC", "setting": "Bacillus subtilis", "value": 6.25, "unit": "µg/mL"}, {"measurement": "MIC", "setting": "Staphylococcus aureus [2]", "value": 12.5, "unit": "µg/mL"}]}
{"smiles": "Cc1ccc2[nH]c3c(F)cc(F)c(F)c3c2c1", "values": [{"measurement": "MIC", "setting": "Staphylococcus aureus [1]", "value": 6.25, "unit": "µg/mL"}, {"measurement": "MIC", "setting": "Bacillus subtilis", "value": 3.12, "unit": "µg/mL"}, {"measurement": "MIC", "setting": "Staphylococcus aureus [2]", "value": 6.25, "unit": "µg/mL"}]}
